A value given as a limit tells only on which side of the number the result lay.

One series deals with CEM cells. Briefly: Cytotoxicity in growing CEM cells, microscopic inspection. It is filed as cell-based. As to the method:
Cells and viruses. The routine growth and passage of KB cells was performed in monolayer cultures using minimal essential medium (MEM) with either Hanks salts [MEM(H)] or Earle salts [MEM(E)] supplemented with 10% calf serum. The sodium bicarbonate concentration was varied to meet the buffering capacity required. Cultures of diploid human foreskin fibroblasts (HFF) or MRC-5 cells were grown in medium consisting of MEM(E) with 10% fetal bovine serum. Cells were passaged at 1:2 to 1:10 dilutions according to conventional procedures by using 0.05% trypsin plus 0.02% EDTA in a HEPES buffered salt solution (HBS) (Shipman, C., Jr., Proc. Soc. Exp. Biol. 130:305-310 (1969)) as described previously. Turk, S. R., et al., Antimicrob. Agents Chemother. 31:544-550 (1987). HFF and MRC-5 cells were passaged only at 1:2 dilutions. CEM cells were maintained in suspension culture as detailed previously. Kucera, L. S., et al., AIDS Res. Human Retroviruses 9:307-314 (1993).
Cytotoxicity assays. Two different assays were used to explore cytotoxicity of selected compounds as we have detailed previously. (i) Cytotoxicity produced in stationary HFF cells and in growing CEM cells was determined by microscopic inspection of cells used in plaque and RT assays which were not affected by the virus. Turk, S. R., et al., Antimicrob. Agents Chemother. 31:544-550 (1987). (ii) The effect of compounds during two population doublings of KB cells was determined by crystal violet staining and spectrophotometric quantitation of dye eluted from stained cells. Prichard, M. N., et al., Antimicrob. Agents Chemother. 35:1060-1065 (1991).
(§1) Data Analysis. Dose-response relationships were constructed by linearly regressing the percent inhibition of parameters derived in the preceding sections against log drug concentrations. Fifty-percent inhibitory (IC50) concentrations were calculated from the regression lines. Samples containing positive controls (acyclovir for HSV-1, ganciclovir for HCMV, and 2-acetylpyridine thiosemicarbazone for cytotoxicity) were used in all assays.

The next series has as its system HSV-1. Nature of the series: HSV-1 ELISA in BSC-1 cells. It is filed as cell-based, herpes simplex 1 (HSV-1). The note with it: BSC-1 cells; ELISA. As to the method:
Virological procedures. Stock HCMV was prepared by infecting HFF cells at a multiplicity of infection (m.o.i.) of <0.01 plaque-forming units (p.f.u.) per cell. Cell growth medium was changed every four days until cytopathology was evident in all cells (approximately 21 days). Supernatant fluids were retained as the virus stock. High titer HSV-1 stocks were prepared by infecting KB cells at an m.o.i. of <0.1 as detailed previously. Turk, S. R., et al., Antimicrob. Agents Chemother. 31:544-550 (1987). Virus titers were determined using monolayer cultures of HFF cells for HCMV and monolayer cultures of BSC-1 cells for HSV-1 as described earlier. Prichard, M. N., et al., J. Virol. Methods 28:101-106 (1990). Briefly, HFF or BSC-1 cells were planted as described above in 96-well cluster dishes and incubated overnight at 37° C. in a humidified 3% CO297% air atmosphere. The next day cultures were inoculated with HCMV or HSV-1 and serially diluted 1:3 across the remaining eleven columns of the 96-well plate. Cultures were incubated at 37° C. for 2 hr to permit virus adsorption and then virus inoculum was replaced with 0.2 mL of fresh medium. Cultures were incubated for seven days for HCMV, two or three days for HSV-1, medium was removed, and the cell sheets were stained with 0.1% crystal violet in 20% methanol. Plaques were enumerated under 20-fold magnification in wells having the dilution which gave 5 to 20 plaques per well. Virus titers were calculated according to the following Formula: Titer (p.f.u./mL)=number of plaques×5×3^n; where n represents the nth dilution of the virus used to infect the well in which plaques were enumerated.
(b) HSV-1. An enzyme-linked immunosorbent assay (ELISA) was employed to detect HSV-1. 96-well cluster dishes were planted with BSC-1 cells at 10,000 cells per well, in a total volume of 200 μL per well of MEM(E) plus 10% calf serum. After overnight incubation at 37° C., drug and HSV-1 was added at the rate of 100 PFU/well. ELISA plates were blocked with 200 μL per well of 10% calf serum and 0.05% tween in HBS. After incubation for 30 minutes, the blocking agent was rinsed two times with HBS-T. A 1:400 dilution of AP conjugated rabbit anti-HSV-1 antibody in HBS-F was added. Plates were sealed with adhesive sheet, and incubated on rocker for one hour at 37° C. Plates were developed in the dark with 100 μL per well of substrate solution containing p-nitrophenyl phosphate. Plates were read at […]. Drug effects were calculated as a percentage of the reduction in virus in the presence of each drug concentration compared to the titer obtained in the absence of drug. Acyclovir was used as a positive control in all experiments.
as §1
In general terms: An ELISA detects its analyte on a solid surface through an enzyme-linked reagent.

A word on the IC50: it is the midpoint of a concentration-inhibition curve. A lower IC50 goes with greater potency. For the compound `Nc1ncnc2c1ncn2C=C1CC1CO` (stereo not drawn) [1 (B = adenine), Example 5, syn-N^9-(2-hydroxymethylcyclopropylidenemethyl)adenine], the 50% inhibitory concentration (IC50) with CEM cells is more than 100 µM; in the series on HSV-1, 3.7 µM.

(Values after patent publication US6958345B2, “2-hydroxymethylcyclopropylidene methylpurines and -pyrimidines as antiviral agents” (The Regents of the University of Michigan, priority 1997, dated 2005).)
